Measured values taken from US20090162286A1, “Phosphodiesterase 10 Inhibition as Treatment for Obesity-Related and Metabolic Syndrome-Related Conditions” (Pfizer Inc., priority 2004, published 2009).

What was measured:
[1] = Obesity Food Intake Model - Fasted-Induced Feeding Assay; format: in vivo, rat; conditions: fasted male CD rats; for effect on food intake (fasting-induced refeeding): 10 mg/kg, given 30 minutes prior to return of food, vs vehicle-treated control; for fasting-induced refeeding, dose dependence: Compound IIA 0.1, 1, 10 mg/kg, Compound IIIA 1, 3, 10, 32 mg/kg, comparator rimonabant 3 mg/kg
Procedure: PDE10 inhibitors were also tested for efficacy in reducing the acute re-feeding response following food withdrawal. Male CD rats were fasted overnight. Rats were administered a PDE10 inhibitor (Compound IIA and IIIA in separate tests) 30 minutes prior to the return of food. Food consumption was monitored and weighed at predetermined time points and the effect of PDE10 inhibitors were compared to vehicle-treated control rats.
Compound IIA, Compound IIIA and rimonabant were tested in the fasted-induced feeding assay described above. Compound IIA was tested at 10 mg/kg, 1 mg/kg and 0.1 mg/kg; Compound IIIA was tested at 32 mg/kg, 10 mg/kg, 3 mg/kg and 1 mg/kg; and rimonabant was tested at 3 mg/kg. Both Compound IIA and Compound IIIA were efficacious at 10 mg/kg.

[2] = Body weight and food intake in diet-induced obese (DIO) mice; format: in vivo, mouse; conditions: 15 mg/kg twice daily po
Procedure: Mice were individually housed and divided into two groups: a group of control mice which remained on Purina 5001 chow; and another group which was switched to a diet composed of 45 kcal % fat (D12331 Rodent Diet, Research Diets, Inc., New Brunswick, N.J.) for the duration of the 6 week study. Food intake was measured on a 24-hour, 5 days/week cycle (Monday-Friday). Body weight was determined on Day 0 and thereafter at the same time that food intake was measured. For testing the effects of a PDE10 inhibitor on body weight and oxygen consumption, a mouse model of diet-induced obesity (DIO) was used. Obesity was induced in the mice by maintaining them on a 45% fat diet for more than 14 weeks. DIO mice were treated with Compound IVA at a dose of 15 mg/kg, administered twice daily (p.o.) for 14 days. Control mice were administered a vehicle of 0.5% methylcellulose. Measurements were made as previously described. DIO mice were treated with Compound IVA at a dose of 15 mg/kg administered twice daily (po). Control mice were administered the vehicle, 0.5% methylcellulose. […] Oxygen consumption was determined in the Compound IV and vehicle treated mice at the end of the study.

[3] = Oxygen consumption in diet-induced obese (DIO) mice; format: in vivo, mouse; conditions: 15 mg/kg twice daily po, at the end of the study, vs vehicle
Procedure: Following determination of body composition, energy expenditure and oxygen consumption were determined using an Oxymax system (Columbus Instruments, Columbus, Ohio). Mice were housed under standard laboratory conditions and maintained on the experimental diet. Mice were acclimated to sealed chambers (8″×4″×5.5″) of the calorimeter (one mouse per chamber). The chambers were placed in activity monitors. The calorimeter was calibrated before each use, airflow was adjusted to 1.6 liters/min, and the system setting and sampling times were set to 60 seconds and 15 seconds, respectively. Oxygen consumption, carbon dioxide production, and ambulatory activity were measured every 10 minutes for a period of 4 hours. For testing the effects of a PDE10 inhibitor on body weight and oxygen consumption, a mouse model of diet-induced obesity (DIO) was used. Obesity was induced in the mice by maintaining them on a 45% fat diet for more than 14 weeks. DIO mice were treated with Compound IVA at a dose of 15 mg/kg, administered twice daily (p.o.) for 14 days. Control mice were administered a vehicle of 0.5% methylcellulose. Measurements were made as previously described. DIO mice were treated with Compound IVA at a dose of 15 mg/kg administered twice daily (po). […] Oxygen consumption was determined in the Compound IV and vehicle treated mice at the end of the study.

SMILES	effect on food intake (fasting-induced refeeding) [1]	fasting-induced refeeding, dose dependence [1]	body weight change ([2]; 14 days, vs vehicle 0.5% methylcellulose)	onset of weight loss ([2]; apparent on the 4th day)	food intake ([2]; vs vehicle 0.5% methylcellulose)	oxygen consumption [3]
COc1cc2ncnc(N3CC[C@@H](Oc4cnc5ccccc5n4)C3)c2cc1OC (stereo in doubt) [Compound IIA, 6,7-Dimethoxy-4-[3-(quinoxalin-2-yloxy)-pyrrolidin-1-yl]-quinazoline]	efficacious	reduce fasting-induced refeeding in the rats in a dose dependent fashion	–	–	–	–
COc1cc2nc(N3CCNCC3)nc(-c3ccccc3F)c2cc1OC [Compound IIIA, 4-(2-Fluorophenyl)-6,7-dimethoxy-2-piperazin-1-yl-quinazoline]	efficacious	reduce fasting-induced refeeding in the rats in a dose dependent fashion	–	–	–	–
c1ccc2nc(COc3ccc(-c4[nH]ncc4-c4ccncc4)cc3)ccc2c1 [Compound IVA, 2-[4-(4-Pyridin-4-yl-2H-pyrazol-3-yl)-phenoxymethyl]-quinoline]	–	–	led to weight loss	after three days treatment	small reduction in food intake	slight non-significant increase in oxygen consumption
